This experiment concerns MV-4-11 cells. In words: Gene expression microarray analysis (Affymetrix PrimeView) and GSEA. In kind it is cell-based, human. More on the design: RFU PODN (11730768_x_at) / Fold change /veh PODN (11730768_x_at) / RFU LINC00158 (11744669_a_at) / Fold change /veh LINC00158 (11744669_a_at) / RFU DUSP10 (11751237_a_at) / Fold change /veh DUSP10 (11751237_a_at) / RFU ID3 (11757404_x_at) / Fold change /veh ID3 (11757404_x_at) / RFU PLEKHG5 (11737974_s_at) / Fold change /veh PLEKHG5 (11737974_s_at) / RFU LRRC4B (11730491_at) / Fold change /veh LRRC4B (11730491_at) / RFU GIMAP4 (11747438_a_at) / Fold change /veh GIMAP4 (11747438_a_at) / RFU KRT8 (11758183_x_at) / Fold change /veh KRT8 (11758183_x_at) / RFU CNN1 (11734310_a_at) / Fold change /veh CNN1 (11734310_a_at) / RFU VPS37D (11726825_at) / Fold change /veh VPS37D (11726825_at) / RFU C10orf10 (11716522_x_at) / Fold change /veh C10orf10 (11716522_x_at) / RFU KIR2DL2 /// KIR2DL4 /// KIR2DL5A /// KIR2DL5B /// KIR2DS1 /// KIR2DS2 /// KIR2DS3 /// KIR2DS4 /// KIR3DL3 /// KIR3DL3 /// KIR3DS1 (11738374_at) / Fold change /veh KIR2DL2 /// KIR2DL4 /// KIR2DL5A /// KIR2DL5B /// KIR2DS1 /// KIR2DS2 /// KIR2DS3 /// KIR2DS4 /// KIR3DL3 /// KIR3DL3 /// KIR3DS1 (11738374_at) / RFU C1QL1 (11718748_at) / Fold change /veh C1QL1 (11718748_at) / RFU TMPRSS4 (11747572_a_at) / Fold change /veh TMPRSS4 (11747572_a_at) / RFU HAMP (11756126_x_at) / Fold change /veh HAMP (11756126_x_at) / RFU RNFT2 (11725882_a_at) / Fold change /veh RNFT2 (11725882_a_at) / RFU NR4A2 (11747474_a_at) / Fold change /veh NR4A2 (11747474_a_at) / RFU ABCC12 (11746883_a_at) / Fold change /veh ABCC12 (11746883_a_at) / RFU TMEM136 (11760407_x_at) / Fold change /veh TMEM136 (11760407_x_at) / RFU CLDN22 /// WWC2 (11732394_at) / Fold change /veh CLDN22 /// WWC2 (11732394_at) / RFU HLA-DPB1 (11760878_x_at) / Fold change /veh HLA-DPB1 (11760878_x_at) / RFU SPINT1 (11716480_a_at) / Fold change /veh SPINT1 (11716480_a_at) / RFU GAP43 (11754022_s_at) / Fold change /veh GAP43 (11754022_s_at) / RFU A4GNT (11735810_at) / Fold change /veh A4GNT (11735810_at) / RFU PRB3 (11715151_x_at) / Fold change /veh PRB3 (11715151_x_at) / RFU TUBB4B (11761932_at) / Fold change /veh TUBB4B (11761932_at) / RFU CAPN14 (11732068_a_at) / Fold change /veh CAPN14 (11732068_a_at) / RFU TMCC2 (11721928_a_at) / Fold change /veh TMCC2 (11721928_a_at) / RFU IRGQ (11745062_a_at) / Fold change /veh IRGQ (11745062_a_at) / RFU FAM174B (11720279_a_at) / Fold change /veh FAM174B (11720279_a_at) / RFU TMPRSS4 (11748680_a_at) / Fold change /veh TMPRSS4 (11748680_a_at) / RFU FAM212B (11763350_a_at) / Fold change /veh FAM212B (11763350_a_at) / RFU PLEKHG5 (11743358_a_at) / Fold change /veh PLEKHG5 (11743358_a_at) / RFU ZSCAN30 (11745921_a_at) / Fold change /veh ZSCAN30 (11745921_a_at) / RFU CMKLR1 (11741424_a_at) / Fold change /veh CMKLR1 (11741424_a_at) / RFU LOC101060620 /// MAPK8IP1 (11723275_at) / Fold change /veh LOC101060620 /// MAPK8IP1 (11723275_at) / RFU SPTSSB (11747773_x_at) / Fold change /veh SPTSSB (11747773_x_at) / RFU PRSS12 (11739890_at) / Fold change /veh PRSS12 (11739890_at) / RFU BIN1 (11741810_x_at) / Fold change /veh BIN1 (11741810_x_at) / RFU WNT11 (11732464_a_at) / Fold change /veh WNT11 (11732464_a_at) / RFU C10orf10 (11716521_a_at) / Fold change /veh C10orf10 (11716521_a_at) / RFU C5orf56 (11738089_at) / Fold change /veh C5orf56 (11738089_at) / RFU CYB561 (11721691_x_at) / Fold change /veh CYB561 (11721691_x_at) / RFU ANKRD19P (11752326_a_at) / Fold change /veh ANKRD19P (11752326_a_at) / RFU OR2T12 /// OR2T33 /// OR2T8 (11738714_s_at) / Fold change /veh OR2T12 /// OR2T33 /// OR2T8 (11738714_s_at) / RFU VCAN (11748164_a_at) / Fold change /veh VCAN (11748164_a_at) / RFU JSRP1 (11732532_at) / Fold change /veh JSRP1 (11732532_at) / RFU KRTAP10-11 (11738290_x_at) / Fold change /veh KRTAP10-11 (11738290_x_at) / RFU MYO3A (11730013_a_at) / Fold change /veh MYO3A (11730013_a_at) / RFU EBF3 (11725865_a_at) / Fold change /veh EBF3 (11725865_a_at) / RFU CAMK2N1 (11719241_x_at) / Fold change /veh CAMK2N1 (11719241_x_at) / RFU C5orf56 (11738088_a_at) / Fold change /veh C5orf56 (11738088_a_at) / RFU OLFML3 (11715873_a_at) / Fold change /veh OLFML3 (11715873_a_at) / RFU LOC100653217 /// NTM (11731650_a_at) / Fold change /veh LOC100653217 /// NTM (11731650_a_at) / RFU MAPK11 (11762145_a_at) / Fold change /veh MAPK11 (11762145_a_at) / RFU FIZ1 (11724087_x_at) / Fold change /veh FIZ1 (11724087_x_at) / RFU OASL (11726364_x_at) / Fold change /veh OASL (11726364_x_at) / RFU SOX15 (11748057_x_at) / Fold change /veh SOX15 (11748057_x_at) / RFU CD79A (11719716_a_at) / Fold change /veh CD79A (11719716_a_at) / RFU HIST1H1D (11736915_at) / Fold change /veh HIST1H1D (11736915_at) / RFU CASKIN2 (11723855_a_at) / Fold change /veh CASKIN2 (11723855_a_at) / RFU LOC730098 (11760151_x_at) / Fold change /veh LOC730098 (11760151_x_at) / RFU OR4N2 (11742367_at) / Fold change /veh OR4N2 (11742367_at) / RFU PRRT2 (11749266_a_at) / Fold change /veh PRRT2 (11749266_a_at) / RFU SNX32 (11753110_a_at) / Fold change /veh SNX32 (11753110_a_at) / RFU CDHR5 (11726645_a_at) / Fold change /veh CDHR5 (11726645_a_at) / RFU RCAN1 (11760418_a_at) / Fold change /veh RCAN1 (11760418_a_at) / RFU FAM167A (11723789_a_at) / Fold change /veh FAM167A (11723789_a_at) / RFU FAM26E (11764081_at) / Fold change /veh FAM26E (11764081_at) / RFU ISYNA1 (11749810_s_at) / Fold change /veh ISYNA1 (11749810_s_at) / RFU ACY1 (11761880_at) / Fold change /veh ACY1 (11761880_at) / RFU 11764098_at / Fold change /veh 11764098_at / RFU SAMD14 (11745864_x_at) / Fold change /veh SAMD14 (11745864_x_at) / RFU NPB (11741838_a_at) / Fold change /veh NPB (11741838_a_at) / RFU TMPRSS6 (11731388_a_at) / Fold change /veh TMPRSS6 (11731388_a_at) / RFU KRTAP10-2 (11738614_at) / Fold change /veh KRTAP10-2 (11738614_at) / RFU ARHGAP8 /// PRR5-ARHGAP8 (11727945_x_at) / Fold change /veh ARHGAP8 /// PRR5-ARHGAP8 (11727945_x_at) / RFU KRTAP5-7 /// NADSYN1 (11734609_at) / Fold change /veh KRTAP5-7 /// NADSYN1 (11734609_at) / RFU RASL12 (11751679_a_at) / Fold change /veh RASL12 (11751679_a_at) / RFU CDKN2B (11736163_a_at) / Fold change /veh CDKN2B (11736163_a_at) / RFU PRF1 (11729649_at) / Fold change /veh PRF1 (11729649_at) / RFU, ZNF638 /// ZNF638-IT1 / Fold change vs veh, ZNF638 /// ZNF638-IT1 / RFU, PANK3 / Fold change vs veh, PANK3 / RFU, SH3YL1 / Fold change vs veh, SH3YL1 / RFU, ZEB2 / Fold change vs veh, ZEB2 / RFU, NRIP1 / Fold change vs veh, NRIP1 / RFU, PTTG1IP / Fold change vs veh, PTTG1IP / RFU, CAPN2 / Fold change vs veh, CAPN2 / RFU, MED14 / Fold change vs veh, MED14 / RFU, SNORA58 / Fold change vs veh, SNORA58 / RFU, C1orf63 / Fold change vs veh, C1orf63 / RFU, LRRFIP1 / Fold change vs veh, LRRFIP1 / RFU, NDUFAF7 / Fold change vs veh, NDUFAF7 / RFU, SLC12A2 / Fold change vs veh, SLC12A2 / RFU, IBTK / Fold change vs veh, IBTK / RFU, ESF1 / Fold change vs veh, ESF1 / Fold change vs veh, TMEM50B / RFU, TAOK1 / Fold change vs veh, TAOK1 / RFU, ACBD3 / Fold change vs veh, ACBD3 / RFU, TMA16 / Fold change vs veh, TMA16 / RFU, RWDD3 / Fold change vs veh, RWDD3 / RFU, BCAT1 / Fold change vs veh, BCAT1 / RFU, EDEM3 / Fold change vs veh, EDEM3 / RFU, TMEM33 / Fold change vs veh, TMEM33 / RFU, WDR75 / Fold change vs veh, WDR75 / RFU, AHCTF1 / Fold change vs veh, AHCTF1 / RFU, TFRC / Fold change vs veh, TFRC / RFU, ZDHHC17 / Fold change vs veh, ZDHHC17 / RFU, NOM1 / Fold change vs veh, NOM1 / RFU, ARL8B / Fold change vs veh, ARL8B / RFU, ZBTB11 / Fold change vs veh, ZBTB11 / RFU, TAMM41 / Fold change vs veh, TAMM41 / RFU, KIAA1704 /// LOC100996395 / Fold change vs veh, KIAA1704 /// LOC100996395 / RFU, ING1 / Fold change vs veh, ING1 / RFU, TRMT61B / Fold change vs veh, TRMT61B / RFU, FUBP3 / Fold change vs veh, FUBP3 / RFU, TP53 / Fold change vs veh, TP53 / RFU, TNKS2 / Fold change vs veh, TNKS2 / RFU, ZFP14 / Fold change vs veh, ZFP14 / RFU, ACTR2 / Fold change vs veh, ACTR2 / RFU, PPP3R1 / Fold change vs veh, PPP3R1 / RFU, PIK3R1 / Fold change vs veh, PIK3R1 / RFU, HNRNPA1 / Fold change vs veh, HNRNPA1 / RFU, RNF170 / Fold change vs veh, RNF170 / RFU, ZNF28 / Fold change vs veh, ZNF28 / RFU, RNGTT / Fold change vs veh, RNGTT / RFU, OGT / Fold change vs veh, OGT / RFU, BRD1 / Fold change vs veh, BRD1 / RFU, MARS / Fold change vs veh, MARS / RFU, ZNF655 / Fold change vs veh, ZNF655 / RFU, FAHD1 / Fold change vs veh, FAHD1 / RFU, BDP1 / Fold change vs veh, BDP1 / RFU, LRRCC1 / Fold change vs veh, LRRCC1 / RFU, ARID1A / Fold change vs veh, ARID1A / RFU, ZNF146 / Fold change vs veh, ZNF146 / RFU, ZNF330 / Fold change vs veh, ZNF330 / RFU, GPN3 / Fold change vs veh, GPN3 / RFU, C9orf123 / Fold change vs veh, C9orf123 / RFU, N4BP2L2 / Fold change vs veh, N4BP2L2 / RFU, ARFIP1 / Fold change vs veh, ARFIP1 / RFU, FAM179B / Fold change vs veh, FAM179B / RFU, BCL10 / Fold change vs veh, BCL10 / RFU, UHRF1BP1L / Fold change vs veh, UHRF1BP1L / RFU, BET1 / Fold change vs veh, BET1 / RFU, CNOT2 / Fold change vs veh, CNOT2 / RFU, ZNF268 / Fold change vs veh, ZNF268 / Fold change vs veh, ZNF507 / RFU, DGCR2 / Fold change vs veh, DGCR2 / RFU, WDSUB1 / Fold change vs veh, WDSUB1 / Fold change vs veh, HSP90B1 /// MIR3652 / RFU, ADSS / Fold change vs veh, ADSS / RFU, GK / Fold change vs veh, GK / RFU, ZNF148 / Fold change vs veh, ZNF148 / RFU, TAF9 / Fold change vs veh, TAF9 / RFU, SLC1A5 / Fold change vs veh, SLC1A5 / RFU, SLMO2 / Fold change vs veh, SLMO2 / RFU, ABCC4 / Fold change vs veh, ABCC4 / RFU, LOC101060439 /// RAP1B / Fold change vs veh, LOC101060439 /// RAP1B / RFU, RFX7 / Fold change vs veh, RFX7 / RFU, GTPBP10 / Fold change vs veh, GTPBP10 / RFU, CNEP1R1 / Fold change vs veh, CNEP1R1 / RFU, BIVM-ERCC5 /// ERCC5 / Fold change vs veh, BIVM-ERCC5 /// ERCC5 / RFU, ILF3 / Fold change vs veh, ILF3 / RFU 11762660_at / Fold change /veh 11762660_at / RFU VCAN (11757783_s_at) / Fold change /veh VCAN (11757783_s_at) / RFU DDX43 (11728927_at) / Fold change /veh DDX43 (11728927_at) / RFU KRT8 (11758188_x_at) / Fold change /veh KRT8 (11758188_x_at) / RFU NKD1 (11759106_at) / Fold change /veh NKD1 (11759106_at) / RFU SRD5A1 (11742802_a_at) / Fold change /veh SRD5A1 (11742802_a_at) / RFU TPSAB1 /// TPSB2 (11721975_s_at) / Fold change /veh TPSAB1 /// TPSB2 (11721975_s_at) / RFU GSTM3 (11746129_a_at) / Fold change /veh GSTM3 (11746129_a_at) / RFU IL23R (11737362_x_at) / Fold change /veh IL23R (11737362_x_at) / RFU TMEM51 (11727254_a_at) / Fold change /veh TMEM51 (11727254_a_at) / RFU PIWIL2 (11732686_x_at) / Fold change /veh PIWIL2 (11732686_x_at) / RFU ORM1 (11744905_x_at) / Fold change /veh ORM1 (11744905_x_at) / RFU CCDC152 (11743942_at) / Fold change /veh CCDC152 (11743942_at) / RFU ECM1 (11717891_a_at) / Fold change /veh ECM1 (11717891_a_at) / RFU IL23R (11748794_a_at) / Fold change /veh IL23R (11748794_a_at) / RFU TNFAIP8L3 (11732012_x_at) / Fold change /veh TNFAIP8L3 (11732012_x_at) / RFU MBOAT4 (11741988_at) / Fold change /veh MBOAT4 (11741988_at) / RFU 11764193_at / Fold change /veh 11764193_at / RFU TMEM53 (11763286_at) / Fold change /veh TMEM53 (11763286_at) / RFU MAGEB2 (11727129_at) / Fold change /veh MAGEB2 (11727129_at) / RFU TMEM200A (11744735_a_at) / Fold change /veh TMEM200A (11744735_a_at) / RFU CCDC152 (11751479_a_at) / Fold change /veh CCDC152 (11751479_a_at) / RFU FAM211A (11726209_a_at) / Fold change /veh FAM211A (11726209_a_at) / RFU RGS16 (11746705_a_at) / Fold change /veh RGS16 (11746705_a_at) / RFU VCAN (11755009_s_at) / Fold change /veh VCAN (11755009_s_at) / RFU RHOB (11743442_s_at) / Fold change /veh RHOB (11743442_s_at) / RFU RGS16 (11720943_a_at) / Fold change /veh RGS16 (11720943_a_at) / RFU RGS16 (11720944_at) / Fold change /veh RGS16 (11720944_at) / RFU, VPS4B / Fold change vs veh, VPS4B / RFU, CREB1 / Fold change vs veh, CREB1 / RFU, DNAJC13 / Fold change vs veh, DNAJC13 / RFU, GNAQ / Fold change vs veh, GNAQ / RFU, CDK5R1 / Fold change vs veh, CDK5R1 / RFU, ZRANB3 / Fold change vs veh, ZRANB3 / RFU, CUL4A / Fold change vs veh, CUL4A / RFU, CCNY / Fold change vs veh, CCNY / RFU, UFL1 / Fold change vs veh, UFL1 / RFU, COG3 / Fold change vs veh, COG3 / RFU, DIAPH2 / Fold change vs veh, DIAPH2 / RFU, SKA2 / Fold change vs veh, SKA2 / RFU, AFF3 / Fold change vs veh, AFF3 / RFU, LMF1 / Fold change vs veh, LMF1 / RFU, IPO11 / Fold change vs veh, IPO11 / RFU, DFFB / Fold change vs veh, DFFB / RFU, FOXP1 / Fold change vs veh, FOXP1 / RFU, CARD8 / Fold change vs veh, CARD8 / RFU, STRN3 / Fold change vs veh, STRN3 / RFU, ADK / Fold change vs veh, ADK / RFU, RASSF2 / Fold change vs veh, RASSF2 / RFU, WIPF1 / Fold change vs veh, WIPF1 / RFU, LARP1B / Fold change vs veh, LARP1B / RFU, RASA1 / Fold change vs veh, RASA1 / RFU, RB1 / Fold change vs veh, RB1 / RFU, PPFIA1 / Fold change vs veh, PPFIA1 / RFU, MAT2A / Fold change vs veh, MAT2A / RFU, CCT5 / Fold change vs veh, CCT5 / RFU, WDR92 / Fold change vs veh, WDR92 / RFU, CUX1 / Fold change vs veh, CUX1 / RFU, TTC7A / Fold change vs veh, TTC7A / RFU, TMEM135 / Fold change vs veh, TMEM135 / RFU, DEPTOR / Fold change vs veh, DEPTOR / RFU, CPM / Fold change vs veh, CPM / RFU, DNAJB6 / Fold change vs veh, DNAJB6 / RFU, CACNA2D3 / Fold change vs veh, CACNA2D3 / RFU, DTX4 / Fold change vs veh, DTX4 / RFU, TFCP2 / Fold change vs veh, TFCP2 / RFU, GMCL1 /// GMCL1P1 / Fold change vs veh, GMCL1 /// GMCL1P1 / RFU, AEBP2 / Fold change vs veh, AEBP2 / RFU, SNHG1 /// SNORD22 /// SNORD25 /// SNORD26 /// SNORD27 /// SNORD28 /// SNORD29 /// SNORD31 / Fold change vs veh, SNHG1 /// SNORD22 /// SNORD25 /// SNORD26 /// SNORD27 /// SNORD28 /// SNORD29 /// SNORD31 / Fold change (Aza/veh), C12orf56 (ProbeSet 11735607_a_at) / Fold change (ACY-1035/veh), C12orf56 (ProbeSet 11735607_a_at) / Fold change (Aza/veh), FGFR1OP (ProbeSet 11751329_s_at) / Fold change (ACY-1035/veh), FGFR1OP (ProbeSet 11751329_s_at) / Fold change (Aza/veh), VPS36 (ProbeSet 11739960_a_at) / Fold change (ACY-1035/veh), VPS36 (ProbeSet 11739960_a_at) / RFU SYPL1 (11715823_x_at) / Fold change /veh SYPL1 (11715823_x_at) / RFU IGFBP7 (11715501_s_at) / Fold change /veh IGFBP7 (11715501_s_at) / RFU REEP3 (11722064_at) / Fold change /veh REEP3 (11722064_at) / RFU IGLL1 (11728026_x_at) / Fold change /veh IGLL1 (11728026_x_at): dose or concentration left out as unconfirmed. The conditions noted are these: MV-4-11 cells, 48 hours.

SMILES strings stand for the structures.

Consider `Nc1ccc(-c2cccs2)cc1NC(=O)c1ccc2c(c1)cc(C1CC1)n2CCN1CCOCC1` [ACY-1035], for which the “RFU HIST1H1D (11736915_at)” value is recorded as 13.65 RFU.

Values taken from PMC5218480 (PLoS ONE, 2017).
